# Tests used:
# [1] = biological target: T1, hA2B adenosine receptor (Homo sapiens, UniProt P29275); test: Adenosine receptor selectivity, hA2B; type: binding; settings: read-out: hA2B IC50 ± SEM
# T1 sequence (P29275 1-332): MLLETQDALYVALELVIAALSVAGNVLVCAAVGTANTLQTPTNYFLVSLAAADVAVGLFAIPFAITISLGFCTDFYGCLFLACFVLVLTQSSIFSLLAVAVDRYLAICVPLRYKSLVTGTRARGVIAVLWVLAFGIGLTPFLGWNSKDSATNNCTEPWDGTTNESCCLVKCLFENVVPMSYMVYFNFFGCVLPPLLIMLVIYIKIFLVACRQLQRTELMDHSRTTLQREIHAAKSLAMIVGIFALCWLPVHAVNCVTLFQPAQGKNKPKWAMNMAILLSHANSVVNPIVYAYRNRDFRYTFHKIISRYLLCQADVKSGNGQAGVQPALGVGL
# Excerpt: (§1) The selectivity of these substances at various adenosine receptors is illustrated as follows: […]
# [2] = biological target: T2, hA3 adenosine receptor (Homo sapiens, UniProt P0DMS8); test: Adenosine receptor selectivity, hA3; type: binding; settings: read-out: hA3 Ki ± SEM
# T2 sequence (P0DMS8 1-318): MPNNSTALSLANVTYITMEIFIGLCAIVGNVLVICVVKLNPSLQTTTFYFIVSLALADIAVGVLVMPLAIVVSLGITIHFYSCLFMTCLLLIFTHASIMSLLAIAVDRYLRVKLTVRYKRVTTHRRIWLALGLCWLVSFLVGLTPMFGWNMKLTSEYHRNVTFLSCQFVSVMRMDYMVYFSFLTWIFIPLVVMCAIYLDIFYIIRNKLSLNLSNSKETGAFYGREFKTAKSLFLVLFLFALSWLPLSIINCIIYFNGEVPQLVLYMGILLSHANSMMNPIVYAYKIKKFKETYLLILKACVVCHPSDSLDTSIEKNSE
# Excerpt: as §1
# [3] = test system: collagen-induced arthritis; test: Collagen induced arthritis (CIA) in mice; type: in vivo; settings: DBA/1 mice, 30 mg/kg i.p. once daily
# Description: Control mice were treated with saline (circles). Data are the mean arthritis paw thickness, assessed using a calliper in the days following primary immunization and boost.
# After the end of treatment, the inhibitory effect was maintained for a period of 2-3 days after which signs began to re-emerge.
# Treatment of rheumatoid arthritis using Collagen Induced Arthritis as a model Collagen-induced arthritis studies. CIA in DBA/1 mice was induced by injecting DBA/1 mice with bovine type Il collagen (CII) emulsified in CFA1 followed by boosting 21 days later with CII emulsified in incomplete Freund's adjuvant (IFA). […] 30 mg/kg was delivered by i.p. injection once daily, starting following the development of clinical arthritis in treatment experiments. Animals were monitored daily following boost of arthritis, following the emergence of clear signs of disease observed on two consecutive days, animals were allocated randomly to treatment groups. Signs monitored included weight loss, paw thickness, and observed clinical score. Scoring is according to the presence of inflamed joints: 1 point for an inflamed digit, 1 point for a inflamed metatarsus, and 1 point for an inflamed joint above the metatarsus.
# [4] = test system: experimental autoimmune encephalomyelitis; test: Experimental autoimmune encephalomyelitis (EAE) in mice; type: in vivo; settings: C57B/6 mice, 15 mg/kg i.p. once daily from EAE induction
# Description: Control mice were treated with PEG/saline (triangles). […] Data are the mean plotted with the standard error of the mean.
# EAE is a widely used animal model for multiple sclerosis (MS).
# EAE was induced in C57B/6 mice by subcutaneous immunization with 100 ug/mouse myelin oligodendrocyte glycoprotein (MOG) peptide 35-55 emulsified in compete Freund's adjuvant (CFA) containing 2 mg/ml heat-killed mycobacterium tuberculosis H37Ra (Hooke Laboratories). As part of the induction protocol, mice were also injected intraperitoneally on the day of immunization and 48 hours later with 0.1 ml of 4 [mu]g/mL Bordetella pertusis toxin. Severity of EAE was determined daily based on a standard scoring system: 1, tail weakness or paralysis; 2, hind leg weakness; 3, hind limb paralysis; 4, forelimb weakness; and 5, moribund animals or death.
# [5] = Pharmacokinetics of Compound 1 in mice, oral or intravenous; type: in vivo; settings: C57BLK6 mice
# Description: The cellulose formulation was administered to C57BLK6 mice orally. The serum suspension/solution was administered intravenously. […] The results are recorded in FIG. 5.
# [6] = biological target: T3, rA1 adenosine receptor (Rattus norvegicus, UniProt P25099); test: Adenosine receptor selectivity, rA1; type: binding; settings: read-out: rA1 Ki ± SEM
# T3 sequence (P25099 1-326): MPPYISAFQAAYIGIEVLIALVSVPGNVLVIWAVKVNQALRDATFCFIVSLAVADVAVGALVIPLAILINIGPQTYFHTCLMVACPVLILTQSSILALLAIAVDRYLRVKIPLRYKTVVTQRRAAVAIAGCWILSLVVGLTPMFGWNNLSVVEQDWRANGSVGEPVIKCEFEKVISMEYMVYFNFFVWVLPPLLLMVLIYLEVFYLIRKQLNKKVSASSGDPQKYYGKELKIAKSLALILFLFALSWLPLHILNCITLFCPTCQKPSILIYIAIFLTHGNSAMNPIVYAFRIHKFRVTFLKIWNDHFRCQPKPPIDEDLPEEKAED
# Excerpt: as §1
# [7] = biological target: rA2A adenosine receptor (Rattus norvegicus, UniProt P30543); test: Adenosine receptor selectivity, rA2A; type: binding; settings: read-out: rA2A Ki ± SEM
# Excerpt: as §1
# Chain of rA2A adenosine receptor (P30543 whole entry): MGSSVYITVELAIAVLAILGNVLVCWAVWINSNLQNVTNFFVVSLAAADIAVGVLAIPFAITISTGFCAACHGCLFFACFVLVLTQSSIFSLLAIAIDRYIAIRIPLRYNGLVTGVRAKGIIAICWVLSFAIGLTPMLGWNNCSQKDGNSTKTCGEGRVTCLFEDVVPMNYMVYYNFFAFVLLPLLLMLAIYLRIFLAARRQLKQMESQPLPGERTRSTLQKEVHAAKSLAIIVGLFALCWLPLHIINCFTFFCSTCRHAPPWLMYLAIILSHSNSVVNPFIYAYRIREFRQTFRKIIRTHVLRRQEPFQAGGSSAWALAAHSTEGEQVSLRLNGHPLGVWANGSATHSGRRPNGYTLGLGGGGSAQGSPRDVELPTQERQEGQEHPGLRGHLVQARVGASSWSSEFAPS
IC50 [1],Ki [2],Ki [6],Ki [7],SMILES,also measured
2 ± 1 nM,–,463 ± 122 nM,1540 ± 271 nM,CCCn1c(=O)[nH]c2nc(-c3ccc(S(=O)(=O)N4CCN(Cc5ccc(C(F)(F)F)cc5)CC4)cc3)[nH]c2c1=O [Compound 2],–
2 ± 1 nM,–,509 ± 155 nM,499 ± 129 nM,CCn1c(=O)[nH]c2nc(-c3ccc(S(=O)(=O)N4CCN(Cc5cccc(C(F)(F)F)c5)CC4)cc3)[nH]c2c1=O [Compound 3],–
2 ± 0.1 nM,–,178 ± 38 nM,799 ± 358 nM,CCCn1c(=O)[nH]c2nc(-c3ccc(S(=O)(=O)N4CCN(Cc5cccc(Cl)c5)CC4)cc3)[nH]c2c1=O [Compound 4],–
3 ± 0.2 nM,–,111 ± 43 nM,782 ± 236 nM,CCCn1c(=O)[nH]c2nc(-c3ccc(S(=O)(=O)N4CCN(Cc5cccc(F)c5)CC4)cc3)[nH]c2c1=O [Compound 5],–
5 ± 2 nM,< 10000 nM,54 ± 5 nM,332 ± 129 nM,"CCn1c(=O)[nH]c2nc(-c3ccc(S(=O)(=O)N4CCN(Cc5ccc6c(c5)OCO6)CC4)cc3)[nH]c2c1=O [Ethyl-/3,4-(Methylen-dioxy)benzyl-]",–
4 ± 3 nM,> 10000 nM,142 ± 6 nM,514 ± 41 nM,CCn1c(=O)[nH]c2nc(-c3ccc(S(=O)(=O)N4CCN(c5ccccc5)CC4)cc3)[nH]c2c1=O [Ethyl-/Phenyl-],–
5 ± 1 nM,< 10000 nM,129 ± 41 nM,630 ± 305 nM,CCn1c(=O)[nH]c2nc(-c3ccc(S(=O)(=O)N4CCN(Cc5ccc(OC)cc5)CC4)cc3)[nH]c2c1=O [Ethyl-/p-Methoxybenzyl-],–
11 ± 3 nM,< 10000 nM,–,154 ± 44.9 nM,CCCn1c(=O)[nH]c2nc(-c3ccc(S(=O)(=O)N4CCN(CCc5ccccc5)CC4)cc3)[nH]c2c1=O [Propyl-/2-(Phenyl)ethyl-],–
24 ± 10 nM,4150 nM,79 ± 5 nM,590 ± 29 nM,"CCCn1c(=O)[nH]c2nc(-c3ccc(S(=O)(=O)N4CCN(Cc5ccc6c(c5)OCO6)CC4)cc3)[nH]c2c1=O [Propyl-/3,4-(Methylen-dioxy)benzyl-]",–
10 ± 2 nM,> 10000 nM,151 ± 38 nM,848 ± 433 nM,CCCn1c(=O)[nH]c2nc(-c3ccc(S(=O)(=O)N4CCN(Cc5ccccc5)CC4)cc3)[nH]c2c1=O [Propyl-/Benzyl-],–
4 ± 0.2 nM,–,273 ± 47 nM,1700 ± 217 nM,CCCn1c(=O)[nH]c2nc(-c3ccc(S(=O)(=O)N4CCN(Cc5cccc(C(F)(F)F)c5)CC4)cc3)[nH]c2c1=O [Propyl-/m-Trifluormethylbenzyl-],–
4 ± 1 nM,–,386 ± 98 nM,1730 ± 790 nM,CCCn1c(=O)[nH]c2nc(-c3ccc(S(=O)(=O)N4CCN(Cc5ccc(Cl)cc5)CC4)cc3)[nH]c2c1=O [Propyl-/p-Chlorbenzyl-],–
16 ± 6 nM,–,84 ± 19 nM,1020 ± 561 nM,CCCn1c(=O)[nH]c2nc(-c3ccc(S(=O)(=O)N4CCN(Cc5ccc(OC)cc5)CC4)cc3)[nH]c2c1=O [Propyl-/p-Methoxybenzyl-],–

SMILES,IC50 [1],Ki [2],Ki [6],Ki [7],also measured
CCCn1c(=O)[nH]c2nc(-c3ccc(S(=O)(=O)N4CCN(c5ccc(Cl)cc5)CC4)cc3)[nH]c2c1=O [Compound 1],1 ± 0.4 nM,> 10000 nM,–,–,"effect on existing inflammation in CIA ([3]; established arthritis): able to reduce an existing inflammation to a normal state; severity of CIA (paw swelling, erythema, joint rigidity; mean visual arthritis score) ([3]; started after development of clinical arthritis): significant reductions in the severity of CIA; onset of EAE compared to control mice ([4]; 15 mg/kg): delayed onset such that there were no signs of EAE; onset of EAE compared to control mice ([4]; listed as compound 1, 15 mg/kg): a delay in the onset of EAE; detectability in blood by route ([5]; oral or intravenous route): detectable only via injection; oral availability ([5]; oral, 1% methyl cellulose in water, 0.2% Tween 80): not orally available; half-life ([5]; whole blood, iv, i.v. application in mouse serum, read-out: terminal half life): 1 to 2 h"
